Measurements as given in the NIST ThermoML archive (doi:10.1021/acs.jced.7b00429).

Test: xn = mol fraction of the nth substance listed
Settings: 100 kPa, Liquid; for viscosity: Falling or rolling sphere viscometry; for speed of sound: Frequency=3 MHz, Single path-length method; for mass density: Vibrating tube method

CCn1cc[n+](C)c1.O=S(=O)([O-])C(F)(F)F [1-ethyl-3-methylimidazolium trifluoromethanesulfonate] + CC#N
Settings | mass density [kg/m3] | speed of sound [m/s] | viscosity [mPa·s]
298.15 K, x1 = 0.1026 | 964.8 | 1309.2 | 0.85
298.15 K, x1 = 0.2053 | 1080.98 | 1337.4 | 1.88
298.15 K, x1 = 0.3044 | 1158.48 | 1360.9 | 2.99
298.15 K, x1 = 0.3948 | 1210.19 | 1377.9 | 4.51
298.15 K, x1 = 0.498 | 1256.19 | 1394.4 | 7.44
298.15 K, x1 = 0.595 | 1289.82 | 1408 | 10.9
298.15 K, x1 = 0.6936 | 1317.8 | 1418.6 | 15.92
298.15 K, x1 = 0.801 | 1342.54 | 1427.1 | 24.05
298.15 K, x1 = 0.9005 | 1362.36 | 1432.6 | 33.72
298.15 K, x1 = 1 | 1379.91 | 1436 | 45.67
303.15 K, x1 = 0.1026 | 959.72 | 1292 | 0.8
303.15 K, x1 = 0.2053 | 1076.24 | 1321.9 | 1.82
303.15 K, x1 = 0.3044 | 1153.77 | 1346.7 | 2.74
303.15 K, x1 = 0.3948 | 1205.75 | 1364.5 | 4.13
303.15 K, x1 = 0.498 | 1251.68 | 1381.5 | 6.64
303.15 K, x1 = 0.595 | 1285.38 | 1395.5 | 9.46
303.15 K, x1 = 0.6936 | 1313.46 | 1406.6 | 13.8
303.15 K, x1 = 0.801 | 1338.3 | 1415.2 | 20.32
303.15 K, x1 = 0.9005 | 1358.19 | 1421.3 | 27.94
303.15 K, x1 = 1 | 1375.71 | 1425.4 | 38.31
308.15 K, x1 = 0.1026 | 954.64 | 1274.9 | 0.75
308.15 K, x1 = 0.2053 | 1071.2 | 1306.5 | 1.65
308.15 K, x1 = 0.3044 | 1149.07 | 1332.5 | 2.52
308.15 K, x1 = 0.3948 | 1200.93 | 1351.3 | 3.76
308.15 K, x1 = 0.498 | 1247.19 | 1368.7 | 5.95
308.15 K, x1 = 0.595 | 1280.97 | 1383.2 | 8.41
308.15 K, x1 = 0.6936 | 1309.13 | 1394.7 | 12.08
308.15 K, x1 = 0.801 | 1334.18 | 1403.4 | 17.54
308.15 K, x1 = 0.9005 | 1354.05 | 1409.7 | 23.87
308.15 K, x1 = 1 | 1371.51 | 1414.3 | 32.38
313.15 K, x1 = 0.1026 | 949.54 | 1257.9 | 0.72
313.15 K, x1 = 0.2053 | 1066.32 | 1291.1 | 1.54
313.15 K, x1 = 0.3044 | 1144.37 | 1318.3 | 2.34
313.15 K, x1 = 0.3948 | 1196.39 | 1338.2 | 3.46
313.15 K, x1 = 0.498 | 1242.71 | 1356 | 5.37
313.15 K, x1 = 0.595 | 1276.68 | 1371.1 | 7.51
313.15 K, x1 = 0.6936 | 1304.82 | 1382.9 | 10.66
313.15 K, x1 = 0.801 | 1330.05 | 1391.6 | 15.27
313.15 K, x1 = 0.9005 | 1349.89 | 1398.1 | 20.58
313.15 K, x1 = 1 | 1367.36 | 1403 | 27.68
318.15 K, x1 = 0.1026 | 944.58 | 1241 | 0.68
318.15 K, x1 = 0.2053 | 1061.52 | 1275.8 | 1.42
318.15 K, x1 = 0.3044 | 1139.57 | 1304.3 | 2.16
318.15 K, x1 = 0.3948 | 1191.77 | 1325.1 | 3.17
318.15 K, x1 = 0.498 | 1238.2 | 1343.4 | 4.87
318.15 K, x1 = 0.595 | 1272.32 | 1359 | 6.75
318.15 K, x1 = 0.6936 | 1300.45 | 1371.3 | 9.46
318.15 K, x1 = 0.801 | 1325.89 | 1380.2 | 13.39
318.15 K, x1 = 0.9005 | 1345.74 | 1387.1 | 17.89
318.15 K, x1 = 1 | 1363.21 | 1392.7 | 23.86
323.15 K, x1 = 0.1026 | 939.47 | 1224.1 | 0.65
323.15 K, x1 = 0.2053 | 1056.45 | 1260.7 | 1.38
323.15 K, x1 = 0.3044 | 1134.77 | 1290.5 | 2.01
323.15 K, x1 = 0.3948 | 1187.31 | 1312.2 | 2.91
323.15 K, x1 = 0.498 | 1233.78 | 1330.9 | 4.43
323.15 K, x1 = 0.595 | 1267.96 | 1347.1 | 5.96
323.15 K, x1 = 0.6936 | 1296.17 | 1359.7 | 8.27
323.15 K, x1 = 0.801 | 1321.8 | 1368.6 | 11.66
323.15 K, x1 = 0.9005 | 1341.58 | 1375.7 | 15.49
323.15 K, x1 = 1 | 1359.07 | 1381.7 | 20.75
